Reference: paper PMC11489226 (Archives of Toxicology, 2024)
“And” between values parts separate entries of the source, which are not always exact repeats. Identical values can stand only once.

How the values were obtained:
CYP3A4 = CYP3A4 (Homo sapiens, UniProt P08684); assay: Metabolism in transgenic HEK293 cells expressing CYP3A4; details: 20 µM parent PCB, 24 h, supernatant
Method: (§1) For the generation of transgenic cell lines, we used semi-adherent HEK293 cells (DSMZ, ACC305, human embryonic kidney cells) which were cultured on a daily basis in DMEM medium supplemented with 10% (FCS) and 1% penicillin/streptomycin. In a first step CYP1A2, CYP2C8, CYP2C9, CYP3A4, CYP2A6, and CYP2E1 cDNA were cloned into the plasmid pcDNATM3.1/V5-His TOPO® using human liver RNA as a template and using the following primers: CYP1A2 for5′-[…]-3′, CYP1A2 rev 5′-[…]-3′; CYP2C8 for 5′-[…]-3′, CYP2C8 rev 5′-[…]-3′; CYP2C9 for 5′-[…]-3′, CYP2C9 rev 5′-[…]-3′; CYP3A4 for 5′-[…]-3′, CYP3A4 rev 5′-[…]-3′, CYP2A6 for 5′-[…]-3′, CYP2A6 rev 5′-[…]-3′; CYP2E1 for 5′-[…]-3′, CYP2E1 rev 5′-[…]-3′. Final constructs were verified with Sanger DNA sequencing and restriction digestion. For transfection, 3 × 10^6 HEK293 cells were pre-incubated in a 10 cm dish in DMEM medium with 10% FCS, but without antibiotics, for 18 to 24 h. When the cells reached approximately 70% confluency, they were transfected using TransIT-LT1 transfection reagent (Biozol, Eiching, Germany). The TransIT-LT1 reagent was warmed to room temperature and vortexed. 1.63 mL Opti-MEM, 16.25 µL plasmid DNA (1 µg/µL), and 48.75 µL TransIT-LT1 reagent were mixed and incubated for 15 to 30 min. The mixture was then added dropwise to the medium of the cells, and the cells were incubated again at 37 °C and 5% CO2. After 24 h, the medium was replaced with standard medium and geneticin was added for selection (1 mg/mL). Cells were selected for 6–8 weeks in bulk culture, and single cell clones were obtained subsequently by limiting dilution. Each clone was checked for insertion by PCR using genomic DNA as a template.
(§2) Parallel samples were run without the addition of PCBs. At a confluence of 80%, PCBs (20 μM each, dissolved in ethanol) were added and cells were incubated for 24 h before harvest of supernatants. Supernatants were diluted 1:2 with 80 μL acetate buffer 0.1 M (pH = 5.3). 100 μL of this dilution were further incubated with 100 μL of ammonium acetate buffer 0.1 M (pH = 5.3) and 5 μL of β-Glucuronidase/Arylsulfatase enzyme overnight in a drying oven at 37 °C for enzymatic hydrolysis to release conjugated compounds. 50 μL of a mix of internal standards (10 ng/mL) and 600 μL of methanol were added to the samples, then mixed by vortexing for 1 min and centrifuged for 10 min at 3400g. The individual supernatants were transferred to glass LC vials and evaporated to approximately 50 μL at 45 °C under a gentle stream of nitrogen. Finally, 0.1 mol/ L ammonium acetate buffer was added to a final volume of 100 μL and then transferred to an insert for analysis.
(§3) HEK293 cells overexpressing the respective CYP enzymes were seeded onto 6-well plates and were treated with or without 10 µM of the respective probe drug in DMEM medium for 24 hours at 37 °C and 5 % CO2. After incubation 200 µL DMEM were collected, cells were washed with PBS and adherent cells were lysed in 500 µL methanol for 20 minutes. Analytes were measured by LC-MS/MS either in methanol cell lysates or in DMEM supernatant.
(§4) 50 µL of DMEM samples were protein precipitated by adding 200 µL of methanol and were centrifuged for 20 min, 17,000 g and 4°C. Supernatants were diluted in water or 40 % methanol according to dilution factor. Methanol cell lysates were diluted ½ with water and centrifuged for 20 min, 17,000 g and 4°C. 5 µL of the processed samples were injected for LC-MS analysis.

CYP1A2 = biological target: T1, CYP1A2 (Homo sapiens, UniProt P05177); assay: Metabolism in transgenic HEK293 cells expressing CYP1A2 (LC-MS/MS of supernatant); details: for Quantification of metabolites generated from PCB28, 52, and 101: 20 µM parent PCB, 24 h, supernatant; for Metabolite concentration formed, range across cell clones: HEK293CYP1A2 cell clones, 20 µM PCB28, 24 h
T1 sequence (P05177 1-516): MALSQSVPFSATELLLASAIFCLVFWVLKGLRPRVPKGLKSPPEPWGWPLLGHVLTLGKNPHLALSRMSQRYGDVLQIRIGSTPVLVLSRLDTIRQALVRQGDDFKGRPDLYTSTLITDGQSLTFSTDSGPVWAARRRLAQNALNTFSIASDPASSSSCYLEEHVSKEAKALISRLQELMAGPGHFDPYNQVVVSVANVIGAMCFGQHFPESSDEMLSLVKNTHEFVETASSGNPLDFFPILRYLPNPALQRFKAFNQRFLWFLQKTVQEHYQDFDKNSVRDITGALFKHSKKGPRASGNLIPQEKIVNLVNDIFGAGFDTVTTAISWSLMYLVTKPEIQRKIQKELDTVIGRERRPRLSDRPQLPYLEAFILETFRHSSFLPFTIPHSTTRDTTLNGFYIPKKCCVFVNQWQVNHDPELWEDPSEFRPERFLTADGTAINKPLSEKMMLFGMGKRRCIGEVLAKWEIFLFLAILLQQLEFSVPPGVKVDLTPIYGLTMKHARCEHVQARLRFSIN
Method: as §1, §2, §3, §4

CYP2E1 = CYP2E1 (Homo sapiens, UniProt P05181); assay: Metabolism in transgenic HEK293 cells expressing CYP2E1; details: 20 µM parent PCB, 24 h, supernatant
Chain of CYP2E1 (P05181 whole entry): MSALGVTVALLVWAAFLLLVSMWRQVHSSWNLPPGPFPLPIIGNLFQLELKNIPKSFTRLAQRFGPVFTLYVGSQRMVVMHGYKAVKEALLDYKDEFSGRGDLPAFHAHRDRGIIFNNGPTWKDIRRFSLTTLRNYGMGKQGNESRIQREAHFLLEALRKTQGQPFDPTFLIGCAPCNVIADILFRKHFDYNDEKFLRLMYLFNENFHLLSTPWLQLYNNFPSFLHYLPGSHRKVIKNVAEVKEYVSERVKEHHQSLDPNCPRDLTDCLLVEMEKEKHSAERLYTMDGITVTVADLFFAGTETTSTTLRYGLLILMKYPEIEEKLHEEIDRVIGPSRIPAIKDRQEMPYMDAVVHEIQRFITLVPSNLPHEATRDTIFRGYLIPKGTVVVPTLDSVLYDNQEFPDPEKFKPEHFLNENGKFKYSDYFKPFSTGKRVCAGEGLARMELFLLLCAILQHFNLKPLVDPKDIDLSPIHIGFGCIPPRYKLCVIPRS
Method: as §1, §2, §3, §4

Chain of CYP3A4 (P08684 whole entry): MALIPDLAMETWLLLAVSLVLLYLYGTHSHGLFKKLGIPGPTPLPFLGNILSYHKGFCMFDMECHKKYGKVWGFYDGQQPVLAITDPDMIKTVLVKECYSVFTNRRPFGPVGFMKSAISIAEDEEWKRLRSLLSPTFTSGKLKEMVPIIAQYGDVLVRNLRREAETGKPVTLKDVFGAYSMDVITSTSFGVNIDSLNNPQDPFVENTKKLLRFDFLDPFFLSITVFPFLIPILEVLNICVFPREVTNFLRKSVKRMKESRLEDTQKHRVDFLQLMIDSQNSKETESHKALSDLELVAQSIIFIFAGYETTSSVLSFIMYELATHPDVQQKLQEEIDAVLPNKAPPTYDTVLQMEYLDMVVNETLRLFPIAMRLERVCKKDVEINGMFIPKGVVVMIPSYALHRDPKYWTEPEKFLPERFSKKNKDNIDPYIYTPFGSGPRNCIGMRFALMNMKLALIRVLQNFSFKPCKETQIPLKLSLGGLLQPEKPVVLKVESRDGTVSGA

Structure (SMILES) | Quantification of metabolites generated from PCB28, 52, and 101 (CYP3A4; CYP3A4 Clone B4) | Quantification of metabolites generated from PCB28, 52, and 101 (CYP3A4; CYP3A4 Clone D10) | Quantification of metabolites generated from PCB28, 52, and 101 (CYP3A4; CYP3A4 Clone E6) | Quantification of metabolites generated from PCB28, 52, and 101 (CYP1A2; CYP1A2, clone G5) | Quantification of metabolites generated from PCB28, 52, and 101 (CYP1A2; CYP1A2, clone G8) | Metabolite concentration formed, range across cell clones (CYP1A2) | Quantification of metabolites generated from PCB28, 52, and 101 (CYP2E1; CYP2E1 Clone B4) | Quantification of metabolites generated from PCB28, 52, and 101 (CYP2E1; CYP2E1 Clone B5) | Quantification of metabolites generated from PCB28, 52, and 101 (CYP2E1; CYP2E1 Clone E6)
Oc1cc(-c2ccc(Cl)cc2)c(Cl)cc1Cl [5-OHCB28, 2,4,4′-trichloro-5-biphenylol] | <LOQ | <LOQ | <LOQ | 6,22 nM | 9,07 nM | 1.7–2.48 µg/L and 6.22–9.07 nM | <LOQ | <LOQ | <LOQ
Oc1cc(Cl)c(-c2ccc(Cl)cc2)cc1Cl [4-OHCB31, 2,4′,5-trichloro-4-biphenylol] | <LOQ | <LOQ | <LOQ | 0,69 nM | 1,11 nM | 0.19–0.30 µg/L and 0.69–1.11 nM | <LOQ | <LOQ | <LOQ
